Active and inactive are the calls of the source. The rule behind the calls is not given here.
How the values were obtained:
A549 [1] = assay: Cell cycle arrest in human A549 cells assessed as accumulation at G2 phase at 5 uM after 24 hrs by propidium iodide staining based flow cytometric analysis (reference value: 6.73%); assay type: functional
A549 [2] = assay: Antimigratory activity in human A549 cells assessed as wound healing at 1 uM after 24 hrs by fluorescence microscopic method (reference value: 58.5%); assay type: functional
A549 [3] = assay: Cell cycle arrest in human A549 cells assessed as accumulation at G2 phase at 0.2 uM after 24 hrs by propidium iodide staining based flow cytometric analysis (reference value: 6.73%); assay type: functional
A549 [4] = assay: Cell cycle arrest in human A549 cells assessed as accumulation at G1 phase at 5 uM after 24 hrs by propidium iodide staining based flow cytometric analysis (reference value: 63.34%); assay type: functional
[5] = molecular target: Serine/threonine-protein kinase PLK1 (Homo sapiens) (UniProt P53350); assay: Inhibition of recombinant human N-terminal His6-tagged PLK1 expressed in baculovirus infected Sf21 insect cells at 1 uM using FAM-labelled peptide as substrate preincubated for 10 mins followed by substrate addition measured after 1 hr relative to control
A549 [6] = assay: Cell cycle arrest in human A549 cells assessed as accumulation at G1 phase at 1 uM after 24 hrs by propidium iodide staining based flow cytometric analysis (reference value: 63.34%); assay type: functional
A549 [7] = assay: Cell cycle arrest in human A549 cells assessed as accumulation at G2 phase at 1 uM after 24 hrs by propidium iodide staining based flow cytometric analysis (reference value: 6.73%); assay type: functional
A549 [8] = assay: Induction of apoptosis in human A549 cells assessed as late apoptotic cells at 1 uM after 24 hrs by acridine orange/ethidium bromide staining-based fluorescence microscopic method; assay type: functional, cell-based
A549 [9] = assay: Antimigratory activity in human A549 cells assessed as wound healing at 1 uM after 12 hrs by fluorescence microscopic method (reference value: 26.2%); assay type: functional
A549 [10] = assay: Induction of apoptosis in human A549 cells assessed as late apoptotic cells at 5 uM after 24 hrs by acridine orange/ethidium bromide staining-based fluorescence microscopic method; assay type: functional, cell-based
A549 [11] = assay: Cell cycle arrest in human A549 cells assessed as accumulation at S phase at 0.2 uM after 24 hrs by propidium iodide staining based flow cytometric analysis (reference value: 29.93%); assay type: functional
A549 [12] = assay: Cell cycle arrest in human A549 cells assessed as accumulation at S phase at 5 uM after 24 hrs by propidium iodide staining based flow cytometric analysis (reference value: 29.93%); assay type: functional
A549 [13] = assay: Antimigratory activity in human A549 cells assessed as inhibition of wound healing up to 36 hrs by fluorescence microscopic method; assay type: functional, cell-based
PC-3 = assay: Cytotoxicity against human PC3 cells assessed as reduction in cell viability after 72 hrs by MTT assay; assay type: functional, cell-based; settings: PC-3, 72 h
A549 [14] = assay: Antimigratory activity in human A549 cells assessed as wound healing at 1 uM after 36 hrs by fluorescence microscopic method (reference value: 100%); assay type: functional
HCT-116 = assay: Cytotoxicity against human HCT116 cells assessed as reduction in cell viability after 72 hrs by MTT assay; assay type: functional, cell-based; settings: HCT-116, 72 h
A549 [15] = assay: Cytotoxicity against human A549 cells assessed as reduction in cell viability after 72 hrs by MTT assay; assay type: functional, cell-based; settings: A549, 72 h
MCF7 = assay: cells; settings: Homo sapiens, MCF7, 72 h
Description: Cytotoxicity against human MCF7 cells assessed as reduction in cell viability after 72 hrs by MTT assay

A549 [16] = assay: Antimigratory activity in human A549 cells assessed as wound healing at 0.2 uM after 36 hrs by fluorescence microscopic method (reference value: 100%); assay type: functional
MDA-MB-231 = assay: cells; settings: Homo sapiens, MDA-MB-231, 72 h
Description: Cytotoxicity against human MDA-MB-231 cells assessed as reduction in cell viability after 72 hrs by MTT assay

A549 [17] = assay: Cell cycle arrest in human A549 cells assessed as accumulation at G1 phase at 0.2 uM after 24 hrs by propidium iodide staining based flow cytometric analysis (reference value: 63.34%); assay type: functional
A549 [18] = assay: Antimigratory activity in human A549 cells assessed as wound healing at 0.2 uM after 12 hrs by fluorescence microscopic method (reference value: 26.2%); assay type: functional
A549 [19] = assay: Cell cycle arrest in human A549 cells assessed as accumulation at S phase at 1 uM after 24 hrs by propidium iodide staining based flow cytometric analysis (reference value: 29.93%); assay type: functional
A549 [20] = assay: Antimigratory activity in human A549 cells assessed as wound healing at 0.2 uM after 24 hrs by fluorescence microscopic method (reference value: 58.5%); assay type: functional

Chain of Serine/threonine-protein kinase PLK1 (Homo sapiens) (P53350 whole entry): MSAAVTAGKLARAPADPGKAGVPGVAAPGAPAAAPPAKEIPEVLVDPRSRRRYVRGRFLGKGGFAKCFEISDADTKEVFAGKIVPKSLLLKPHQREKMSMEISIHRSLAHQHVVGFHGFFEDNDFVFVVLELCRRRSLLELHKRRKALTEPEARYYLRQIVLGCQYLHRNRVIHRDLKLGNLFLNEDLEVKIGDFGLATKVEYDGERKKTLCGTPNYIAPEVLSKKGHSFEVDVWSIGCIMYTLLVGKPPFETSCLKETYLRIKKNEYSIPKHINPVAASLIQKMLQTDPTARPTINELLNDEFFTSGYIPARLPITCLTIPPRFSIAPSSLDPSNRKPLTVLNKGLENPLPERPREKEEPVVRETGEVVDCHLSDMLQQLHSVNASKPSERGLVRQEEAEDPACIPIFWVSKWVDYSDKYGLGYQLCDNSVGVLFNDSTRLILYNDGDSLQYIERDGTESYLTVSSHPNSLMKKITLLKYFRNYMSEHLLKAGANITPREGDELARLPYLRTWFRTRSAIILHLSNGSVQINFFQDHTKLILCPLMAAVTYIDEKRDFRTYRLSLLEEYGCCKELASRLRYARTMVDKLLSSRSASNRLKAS

Question: Cc1nnc2c(=O)n(C3CCCC3)c3nc(Nc4ccc(N5CC(C)NC(C)C5)cc4)ncc3n12 (centres undefined) was tested. Which Activity (A549 [1]) did it give?
Answer: The Activity was 4.32%.

Question: What about the Activity (A549 [2]) of the same compound?
Answer: Its Activity is 27.8%.

Question: What about the Activity (A549 [3]) of the same compound?
Answer: The Activity was 4.55%.

Question: What about the Activity (A549 [4]) of the same compound?
Answer: Its Activity is 82.32%.

Question: What about the inhibition [5] of the same compound?
Answer: Its inhibition is 86.4%.

Question: What about the Activity (A549 [6]) of the same compound?
Answer: The Activity was 79.82%.

Question: What about the Activity (A549 [7]) of the same compound?
Answer: The Activity was 5.64%.

Question: What about the Activity (A549 [8]) of the same compound?
Answer: The Activity was “Active”.

Question: What about the Activity (A549 [9]) of the same compound?
Answer: Its Activity is 24.4%.

Question: What about the Activity (A549 [10]) of the same compound?
Answer: The Activity was “Active”.

Question: What about the Activity (A549 [11]) of the same compound?
Answer: The Activity was 20.46%.

Question: And the Activity (A549 [12])?
Answer: Its Activity is 13.37%.

Question: What about the inhibition (A549 [13]) of the same compound?
Answer: Its inhibition is “Dose-dependent effect”.

Question: And the IC50 (PC-3)?
Answer: Its IC50 is 510 nM.

Question: And the Activity (A549 [14])?
Answer: The Activity was 43.1%.

Question: What about the IC50 (HCT-116) of the same compound?
Answer: The IC50 was 300 nM.

Question: And the IC50 (A549 [15])?
Answer: The IC50 was 160 nM.

Question: What about the IC50 (MCF7) of the same compound?
Answer: The IC50 was 300 nM.

Question: What about the Activity (A549 [16]) of the same compound?
Answer: Its Activity is 51.4%.

Question: What about the IC50 (MDA-MB-231) of the same compound?
Answer: Its IC50 is 700 nM.

Question: And the Activity (A549 [17])?
Answer: The Activity was 74.99%.

Question: What about the Activity (A549 [18]) of the same compound?
Answer: Its Activity is 25.1%.

Question: What about the Activity (A549 [19]) of the same compound?
Answer: Its Activity is 14.54%.

Question: And the Activity (A549 [20])?
Answer: Its Activity is 33.7%.
